From ChEMBL document CHEMBL4265965, “Dichloroacetophenones targeting at pyruvate dehydrogenase kinase 1 with improved selectivity and antiproliferative activity: Synthesis and structure-activity relationships” (Bioorg Med Chem Lett, 2018)
The source made the active and inactive calls. The calls are words filed in the database; no cut-off is given here.

Tests used:
NCI-H1650 [1] = experiment: Antiproliferative activity against human NCI-H1650 cells assessed as inhibition of cell proliferation at 6 uM after 72 hrs by MTT assay relative to control; format: functional; conditions: for inhibition at 6 µM: NCI-H1650, 72 h
A549 [2] = experiment: Antiproliferative activity against human A549 cells assessed as inhibition of cell proliferation at 12 uM after 72 hrs by MTT assay relative to control; format: functional; conditions: A549, 72 h
NCI-H1975 [3] = experiment: Antiproliferative activity against human NCI-H1975 cells assessed as inhibition of cell proliferation at 2 uM after 72 hrs by MTT assay relative to control; format: functional; conditions: for inhibition at 2 µM: NCI-H1975, 72 h
NCI-H1975 [4] = experiment: Antiproliferative activity against human NCI-H1975 cells assessed as inhibition of cell proliferation at 6 uM after 72 hrs by MTT assay relative to control; format: functional; conditions: for inhibition at 6 µM: NCI-H1975, 72 h
A549 [5] = experiment: Antiproliferative activity against human A549 cells assessed as inhibition of cell proliferation at 2 uM after 72 hrs by MTT assay relative to control; format: functional; conditions: for inhibition at 2 µM: A549, 72 h
A549 [6] = experiment: Antiproliferative activity against human A549 cells assessed as inhibition of cell proliferation at 6 uM after 72 hrs by MTT assay relative to control; format: functional; conditions: for inhibition at 6 µM: A549, 72 h
NCI-H1650 [7] = experiment: Antiproliferative activity against human NCI-H1650 cells assessed as inhibition of cell proliferation at 12 uM after 72 hrs by MTT assay relative to control; format: functional; conditions: for inhibition at 12 µM: NCI-H1650, 72 h
NCI-H1650 [8] = experiment: Antiproliferative activity against human NCI-H1650 cells assessed as inhibition of cell proliferation at 2 uM after 72 hrs by MTT assay relative to control; format: functional; conditions: for inhibition at 2 µM: NCI-H1650, 72 h
NCI-H1975 [9] = experiment: Antiproliferative activity against human NCI-H1975 cells assessed as inhibition of cell proliferation at 12 uM after 72 hrs by MTT assay relative to control; format: functional; conditions: NCI-H1975, 72 h
[10] = biological target: [Pyruvate dehydrogenase (acetyl-transferring)] kinase isozyme 1, mitochondrial (Homo sapiens, UniProt Q15118); experiment: Inhibition of recombinant human N-terminal His6/Sumo-tagged PDK1 (29 to 436 residues) expressed in Escherichia coli BL21 at 1 uM by kinase-glo luminescence assay relative to control

| SMILES | inhibition (NCI-H1650 [1]) | inhibition at 12 µM (A549 [2]) [%] | inhibition at 2 µM (NCI-H1975 [3]) [%] | inhibition at 6 µM (NCI-H1975 [4]) [%] | inhibition at 2 µM (A549 [5]) [%] | inhibition at 6 µM (A549 [6]) [%] | inhibition at 12 µM (NCI-H1650 [7]) [%] | inhibition (NCI-H1650 [8]) | inhibition at 12 µM (NCI-H1975 [9]) [%] | inhibition at 6 µM (NCI-H1650 [1]) [%] | inhibition (A549 [5]) | inhibition at 2 µM (NCI-H1650 [8]) [%] | inhibition [10] | inhibition (NCI-H1650 [7]) | inhibition (NCI-H1975 [3]) | inhibition (NCI-H1975 [4]) | inhibition (A549 [6]) |
| --- | --- | --- | --- | --- | --- | --- | --- | --- | --- | --- | --- | --- | --- | --- | --- | --- | --- |
| O=C(c1ccc(Br)c([N+](=O)[O-])c1)C(Cl)Cl | inactive | 50.5 | 9.1 | 74.1 | 6.5 | 14.1 | 59.1 | inactive | 98.9 |  |  |  |  |  |  |  |  |
| Cc1ccc(C(=O)C(Cl)Cl)cc1 |  | 80 | 28.6 | 83.1 |  | 33.2 | 78.4 |  | 95.7 | 54.3 | inactive | 31.2 | 19.7% |  |  |  |  |
| O=C(c1cccc(Cl)c1)C(Cl)Cl |  | 82.8 | 37 | 95.9 | 14.2 | 53.1 | 99.1 |  | 98.4 | 76.3 |  | 24.9 |  |  |  |  |  |
| O=C(c1ccc([N+](=O)[O-])cc1)C(Cl)Cl |  | 97.6 | 77.8 | 99.6 | 24.5 | 70.5 | 99.9 |  | 99.4 | 98.5 |  | 35 |  |  |  |  |  |
| CCc1ccc(C(=O)C(Cl)Cl)cc1 |  | 92.8 | 55.4 | 97.6 | 31.5 | 81.4 | 99.3 |  | 96.5 | 79.1 |  | 30.7 | 44% |  |  |  |  |
| O=C(c1ccc(F)cc1)C(Cl)Cl |  | 48.1 | 15.4 | 92.1 | 4.7 | 15.5 | 95.5 |  | 98.3 | 62.9 |  | 26.5 |  |  |  |  |  |
| O=C(c1ccccc1Cl)C(Cl)Cl |  | 27.9 | 12.6 | 39 |  | 4.6 | 42.9 |  | 71 | 19.7 | inactive | 10.3 | inactive |  |  |  |  |
| O=C(c1ccccc1F)C(Cl)Cl | inactive | 13.6 | 4.4 | 12.8 |  | 10.1 |  | inactive | 48.6 |  | inactive |  | inactive | inactive |  |  |  |
| Cc1ccccc1C(=O)C(Cl)Cl |  | 79.8 | 39.8 | 69.8 | 23.7 | 62.2 | 69.6 |  | 93 | 46.7 |  | 27.2 | inactive |  |  |  |  |
| O=C(c1ccccc1I)C(Cl)Cl |  | 41.2 | 28.6 | 90.8 |  | 7.8 | 99.4 |  | 96.5 | 57.1 | inactive | 21 | inactive |  |  |  |  |
| O=C(c1cccc(C(F)(F)F)c1)C(Cl)Cl |  | 77.9 | 45.8 | 96.6 | 11 | 28.4 | 97.5 |  | 97.8 | 65.9 |  | 24 |  |  |  |  |  |
| O=C(c1cccc(I)c1)C(Cl)Cl |  | 89.8 | 64 | 97.5 | 20.4 | 67 | 98.7 |  | 99.1 | 82 |  | 46.1 |  |  |  |  |  |
| O=C(c1ccc(I)cc1)C(Cl)Cl |  | 74.4 | 33.8 | 91.4 | 9.3 | 52.3 | 99.6 |  | 96.8 | 65.6 |  | 29.3 |  |  |  |  |  |
| COc1cccc2c1C(=O)c1c(O)c3c(c(O)c1C2=O)C[C@@](O)(C(=O)CO)C[C@@H]3O[C@H]1C[C@H](N)[C@H](O)[C@H](C)O1 [DOXORUBICIN] |  | 98.9 | 72.4 | 90.6 | 52.3 | 86.7 | 99.6 |  | 98.6 | 86.9 |  | 60.5 |  |  |  |  |  |
| CC(C)c1ccc(C(=O)CCl)cc1[N+](=O)[O-] |  | 75.6 | 9 | 50.4 |  | 28.7 | 95.7 |  | 99 | 59.7 | inactive | 18.4 |  |  |  |  |  |
| O=C(c1cccc([N+](=O)[O-])c1)C(Cl)Cl |  | 85.9 | 62.2 | 98.5 | 13.4 | 44.2 | 99.9 |  | 99.9 | 82.1 |  | 25.5 |  |  |  |  |  |
| CC(C)c1ccc(C(=O)C(Cl)(Cl)Cl)cc1[N+](=O)[O-] | inactive | 12.5 |  |  |  |  | 22.6 | inactive | 31.2 |  | inactive |  |  |  | inactive | inactive | inactive |
| CCc1cccc(C(=O)C(Cl)Cl)c1 |  | 63.2 | 28 | 85.9 | 22.6 | 25.7 | 98.7 |  | 96.9 | 64.1 |  | 23.7 |  |  |  |  |  |
| O=C(c1ccc(Cl)c(C(F)(F)F)c1)C(Cl)Cl |  | 94.5 | 70.1 | 97.6 | 27.6 | 79.5 | 100 |  | 98.4 | 95.3 |  | 55.7 |  |  |  |  |  |
| O=C(c1ccc(C(F)(F)F)cc1)C(Cl)Cl |  | 85.9 | 47.8 | 91.6 | 18.6 | 37.1 | 75.5 |  | 98.2 | 49.7 |  | 25.8 |  |  |  |  |  |
| N#Cc1ccc(C(=O)C(Cl)Cl)cc1 |  | 61.4 | 54.6 | 99.4 | 8.5 | 15.9 | 96.5 |  | 99.7 | 65.8 |  | 11.8 |  |  |  |  |  |
| O=C(c1ccc(Br)cc1)C(Cl)Cl |  | 48.8 | 13.3 | 67.7 |  | 16.2 | 73.4 |  | 96.1 | 37.8 | inactive | 23.5 |  |  |  |  |  |
| O=C(c1ccc(Cl)cc1Cl)C(Cl)Cl |  | 48.4 | 80.2 | 96.9 | 1.8 | 4.4 | 99.8 |  | 99 | 89 |  | 35.2 |  |  |  |  |  |
| O=C(c1cccc(Br)c1)C(Cl)Cl |  | 72 | 44.9 | 86.2 | 15.6 | 24.7 | 79.6 |  | 97.4 | 43.6 |  | 18.1 |  |  |  |  |  |
| Cc1cccc(C(=O)C(Cl)Cl)c1 |  | 91.3 | 42.5 | 97.3 | 14.2 | 65.6 | 96.8 |  | 96.7 | 79.9 |  | 33.3 |  |  |  |  |  |
| O=C(c1ccc(F)cc1F)C(Cl)Cl |  | 58.5 | 74.3 | 97.5 | 4.8 | 50.1 | 95.3 |  | 98.7 | 65.5 |  | 30.8 |  |  |  |  |  |
| O=C(c1ccc(F)c([N+](=O)[O-])c1)C(Cl)Cl | inactive | 51.1 | 6.5 | 73.3 | 7 | 20.4 | 14.5 | inactive | 97.6 |  |  |  |  |  |  |  |  |
